Measured values from ChEMBL document CHEMBL1140455, “On the search of new I2-IBS aliphatic ligands: bis-guanidino carbonyl derivatives” (Bioorg Med Chem Lett, 2007).

assay: Displacement of [3H]2-BFI from I2-IBS in human frontal cortex membranes; type: cell membranes, Membrane

Row | SMILES | Log Ki
1 | N=C(N)NCCCCCCCCCCCCNC(=N)N | -7.48
2 | N=C(N)NC(=O)CCCCCCCCCCCC(=O)NC(=N)N | -5.06
3 | N=C(N)NC(=O)CCCCCCCCCCCCC(=O)NC(=N)N | -5.91
4 | N=C(N)NC(=O)CCCCCCCCCCCCCCC(=O)NC(=N)N | -5.7
5 | c1ccc2c(c1)OCC(C1=NCCN1)O2 (stereo not drawn) [IDAZOXAN] | -7.43
6 | N=C(N)NC(=O)CCCCCCCCCCC(=O)NC(=N)N | -5.69
7 | N=C(N)NC(=O)CCCCCCCCC(=O)NC(=N)N | -6.11
8 | N=C(N)NC(=O)CCCCCCCCCC(=O)NC(=N)N | -5.2
